Experimental data reported in patent US9193728B2, “Fused tetracyclic pyrido [4,3-B] indole and pyrido [3,4-B] indole derivatives and methods of use” (Medivation Technologies, Inc., priority 2010, dated 2015).

Columns and labels:
[1] = target: T1, human recombinant histamine H1 receptor (Homo sapiens, UniProt P35367); experiment: Histamine H1 radioligand binding ([3H]Pyrilamine); conditions: compound at 1 μM; 1.2 nM [3H]Pyrilamine; read-out: Histamine Binding (1 μM) H1, percentage inhibition
T1 construct: expressed in transfected cells; host or cells: CHO-K1
Method: To evaluate in radioligand binding assays the activity of compounds of the invention, human recombinant histamine H1 receptor expressed in Chinese hamster ovary (CHO) K1 cells (De Backer, M. et al, Biochem. Biophys. Res. Comm. 197(3):1601, 1993) in a modified Tris-HCl buffer (50 mM Tris-HCl, pH 7.4, 2 mM MgCl2, 100 mM NaCl, 250 mM Sucrose) was used. Compounds of the invention were incubated with 1.2 nM [^3H]Pyrilamine for 180 min. at 25° C. Non-specific binding was estimated in the presence of 1 μM Pyrilamine. Receptor proteins were filtered and washed, the filters were then counted to determine [^3H]Pyrilamine specifically bound. Compounds were screened at 1 μM or lower, using 1% DMSO as vehicle. Biochemical assay results are presented as the percent inhibition of specific binding in Table 2.

[2] = target: T2, human recombinant histamine H2 receptor (Homo sapiens, UniProt P25021); experiment: Histamine H2 radioligand binding ([125I]Aminopotentidine); conditions: compound at 1 μM; 0.1 nM [125I]Aminopotentidine; read-out: Histamine Binding (1 μM) H2, percentage inhibition
T2 construct: expressed in transfected cells; host or cells: CHO-K1
Method: To evaluate in radioligand binding assays the activity of compounds of the invention, human recombinant histamine H2 receptor expressed in Chinese hamster ovary (CHO) K1 cells (Ruat, M., Proc. Natl. Acad. Sci. USA. 87(5):1658, 1990) in a 50 mM Phosphate buffer, pH 7.4 was used. Compounds of the invention were incubated with 0.1 nM [^125I]Aminopotentidine for 120 min. at 25° C. Non-specific binding was estimated in the presence of 3 μM Tiotidine. Receptor proteins were filtered and washed, the filters were then counted to determine [^125I]Aminopotentidine specifically bound. Compounds were screened at 1 μM or lower, using 1% DMSO as vehicle. Biochemical assay results are presented as the percent inhibition of specific binding in Table 2.

[3] = target: T3, human recombinant dopamine D2L receptor (Homo sapiens, UniProt P14416); experiment: Dopamine D2L radioligand binding ([3H]Spiperone); conditions: compound at 1 μM; read-out: Dopamine (1 μM) D2L, percentage inhibition of ligand binding
T3 construct: expressed in transfected cells; host or cells: CHO
Method: To evaluate in radioligand binding assays the activity of compounds of the invention, human recombinant dopamine D2L receptor expressed in Chinese hamster ovary (CHO) cells (Grandy, D. et al, Proc. Natl. Acad. Sci. USA. 86:9762, 1989; Hayes, G. et al, Mol. Endocrinol. 6:920, 1992) in a modified Tris-HCl buffer (50 mM Tris-HCl, pH 7.4, 1.4 mM Ascorbic Acid, 0.001% BSA, 150 mM NaCl) was used. Compounds of the invention were incubated with 0.16 nM [^3H]Spiperone for 120 min. at 25° C. Non-specific binding was estimated in the presence of 10 μM Haloperidol. Receptor proteins were filtered and washed, the filters were then counted to determine [^3H]Spiperone specifically bound. Compounds were screened at 1 μM or lower, using 1% DMSO as vehicle. Biochemical assay results are presented as the percent inhibition of specific binding in Table 3.

[4] = target: T4, human recombinant serotonin (5-Hydroxytryptamine) 5-HT2A receptor (Homo sapiens, UniProt P28223); experiment: Serotonin 5-HT2A radioligand binding ([3H]Ketanserin); conditions: for inhibition at 1 µM: compound at 1 μM, read-out: Serotonin (1 μM) 5-HT2A, percentage inhibition of ligand binding
T4 construct: expressed in transfected cells; host or cells: CHO-K1
Method: To evaluate in radioligand binding assays the activity of compounds of the invention, human recombinant serotonin (5-Hydroxytryptamine) 5-HT2A receptor expressed in Chinese hamster ovary (CHO)-K1 cells (Bonhaus, D. et al, Br. J. Pharmacol. 115:622, 1995; Saucier, C. et al, J. Neurochem. 68:1998, 1997) in a 50 mM Tris-HCl buffer, pH 7.4, was used. Compounds of the invention were incubated with 0.5 nM [^3H]Ketanserin for 60 min. at 25° C. Non-specific binding was estimated in the presence of 1 μM Mianserin. Receptor proteins were filtered and washed, the filters were then counted to determine [^3H]Ketanserin specifically bound. Compounds were screened at 1 μM or lower, using 1% DMSO as vehicle. Biochemical assay results are presented as the percent inhibition of specific binding in Table 4.

[5] = target: T5, human recombinant serotonin (5-Hydroxytryptamine) 5-HT2C receptor (Homo sapiens, UniProt P28335); experiment: Serotonin 5-HT2C radioligand binding ([3H]Mesulergine); conditions: for inhibition at 1 µM: compound at 1 μM, read-out: Serotonin (1 μM) 5-HT2C, percentage inhibition of ligand binding
T5 construct: expressed in transfected cells; host or cells: CHO-K1
T5 sequence (P28335 33-458): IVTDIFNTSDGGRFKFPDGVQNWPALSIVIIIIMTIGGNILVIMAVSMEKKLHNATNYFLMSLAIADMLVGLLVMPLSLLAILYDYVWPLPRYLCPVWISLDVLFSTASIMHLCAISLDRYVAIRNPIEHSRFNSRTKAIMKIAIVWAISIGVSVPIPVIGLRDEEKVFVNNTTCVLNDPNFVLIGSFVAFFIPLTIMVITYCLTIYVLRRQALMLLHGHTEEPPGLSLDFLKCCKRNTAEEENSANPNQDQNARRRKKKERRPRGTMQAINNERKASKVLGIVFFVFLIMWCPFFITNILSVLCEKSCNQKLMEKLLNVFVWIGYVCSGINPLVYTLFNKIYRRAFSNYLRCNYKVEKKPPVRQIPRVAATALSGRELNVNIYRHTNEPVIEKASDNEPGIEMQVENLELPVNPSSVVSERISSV
Method: To evaluate in radioligand binding assays the activity of compounds of the invention, human recombinant serotonin (5-Hydroxytryptamine) 5-HT2C receptor expressed in Chinese hamster ovary (CHO)-K1 cells (Wolf, W. et al, J. Neurochem. 69:1449, 1997) in a modified Tris-HCl buffer (50 mM Tris-HCl, pH 7.4, 0.1% Ascorbic Acid, 10 μM Pargyline) was used. Compounds of the invention were incubated with 1 nM [^3H]Mesulergine for 60 min. at 25° C. Non-specific binding was estimated in the presence of 1 μM Mianserin. Receptor proteins were filtered and washed, the filters were then counted to determine [^3H]Mesulergine specifically bound. Compounds were screened at 1 μM or lower, using 1% DMSO as vehicle. Biochemical assay results are presented as the percent inhibition of specific binding in Table 4.

[6] = target: T6, human recombinant serotonin (5-Hydroxytryptamine) 5-HT6 receptor (Homo sapiens, UniProt P50406); experiment: Serotonin 5-HT6 radioligand binding ([3H]LSD); conditions: for inhibition at 1 µM: compound at 1 μM, read-out: Serotonin (1 μM) 5-HT6, percentage inhibition of ligand binding
T6 construct: expressed in transfected cells; host or cells: HeLa
Method: To evaluate in radioligand binding assays the activity of compounds of the invention, human recombinant serotonin (5-Hydroxytryptamine) 5-HT6 receptor expressed in human HeLa cells (Monsma, F. Jr. et al, Mol. Pharmacol. 43:320, 1993) in a modified Tris-HCl buffer (50 mM Tris-HCl, pH 7.4, 150 mM NaCl, 2 mM Ascorbic Acid, 0.001% BSA) was used. Compounds of the invention were incubated with 1.5 nM [3H]Lysergic acid diethylamide (LSD) for 120 min. at 37° C. Non-specific binding was estimated in the presence of 5 μM Serotonin (5-HT). Receptor proteins were filtered and washed, the filters were then counted to determine [3H]LSD specifically bound. Compounds were screened at 1 μM or lower, using 1% DMSO as vehicle. Biochemical assay results are presented as the percent inhibition of specific binding in Table 4.

[7] = target: T7, human recombinant serotonin (5-Hydroxytryptamine) 5-HT7 receptor (Homo sapiens, UniProt P34969); experiment: Serotonin 5-HT7 radioligand binding ([3H]LSD); conditions: for inhibition at 1 µM: compound at 1 μM, read-out: Serotonin (1 μM) 5-HT7, percentage inhibition of ligand binding
T7 construct: expressed in transfected cells; host or cells: CHO
Method: To evaluate in radioligand binding assays the activity of compounds of the invention, human recombinant serotonin (5-Hydroxytryptamine) 5-HT7 receptor expressed in Chinese hamster ovary (CHO) cells (Roth, B. et al, J. Pharmacol. Exp. Ther. 268:1403, 1994; Shen, Y. et al, J. Biol. Chem. 268:18200, 1993) in a modified Tris-HCl buffer (50 mM Tris-HCl, pH 7.4, 10 mM MgCl2, 0.5 mM EDTA) was used. Compounds of invention were incubated with 5.5 nM [^3H]Lysergic acid diethylamide (LSD) for 120 min. at 25° C. Non-specific binding was estimated in the presence of 10 μM Serotonin (5-HT). Receptor proteins were filtered and washed, the filters were then counted to determine [^3H]LSD specifically bound. Compounds were screened at 1 μM or lower, using 1% DMSO as vehicle. Biochemical assay results are presented as the percent inhibition of specific binding in Table 4.

[8] = Stability of product in acidic medium (note in preparation); type: physicochemical

T7 sequence (P34969 whole entry): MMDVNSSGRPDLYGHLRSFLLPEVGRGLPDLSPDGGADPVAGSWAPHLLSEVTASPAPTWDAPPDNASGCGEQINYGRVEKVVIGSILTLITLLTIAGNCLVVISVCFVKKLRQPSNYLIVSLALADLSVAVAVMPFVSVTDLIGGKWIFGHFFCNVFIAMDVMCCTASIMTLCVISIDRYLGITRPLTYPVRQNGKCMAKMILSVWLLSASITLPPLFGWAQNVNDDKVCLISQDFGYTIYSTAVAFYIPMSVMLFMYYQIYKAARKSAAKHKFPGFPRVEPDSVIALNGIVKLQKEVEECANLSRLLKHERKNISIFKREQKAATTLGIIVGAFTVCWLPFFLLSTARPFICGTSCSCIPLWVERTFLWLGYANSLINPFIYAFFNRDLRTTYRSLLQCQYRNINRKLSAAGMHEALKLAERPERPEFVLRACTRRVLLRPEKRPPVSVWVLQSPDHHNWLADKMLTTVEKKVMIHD
T6 sequence (P50406 whole entry): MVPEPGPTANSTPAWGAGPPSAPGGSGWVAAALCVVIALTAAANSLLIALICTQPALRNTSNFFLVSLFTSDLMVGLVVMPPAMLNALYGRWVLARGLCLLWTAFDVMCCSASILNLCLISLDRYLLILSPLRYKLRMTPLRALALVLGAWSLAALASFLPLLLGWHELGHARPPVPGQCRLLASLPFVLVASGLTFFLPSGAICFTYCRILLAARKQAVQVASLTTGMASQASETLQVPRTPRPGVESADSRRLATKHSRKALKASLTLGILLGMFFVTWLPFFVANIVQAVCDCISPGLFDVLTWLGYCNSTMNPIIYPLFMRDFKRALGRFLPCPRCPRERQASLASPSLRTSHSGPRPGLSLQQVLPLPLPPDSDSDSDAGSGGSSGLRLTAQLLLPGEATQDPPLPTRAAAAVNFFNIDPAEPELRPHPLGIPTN
T1 sequence (P35367 whole entry): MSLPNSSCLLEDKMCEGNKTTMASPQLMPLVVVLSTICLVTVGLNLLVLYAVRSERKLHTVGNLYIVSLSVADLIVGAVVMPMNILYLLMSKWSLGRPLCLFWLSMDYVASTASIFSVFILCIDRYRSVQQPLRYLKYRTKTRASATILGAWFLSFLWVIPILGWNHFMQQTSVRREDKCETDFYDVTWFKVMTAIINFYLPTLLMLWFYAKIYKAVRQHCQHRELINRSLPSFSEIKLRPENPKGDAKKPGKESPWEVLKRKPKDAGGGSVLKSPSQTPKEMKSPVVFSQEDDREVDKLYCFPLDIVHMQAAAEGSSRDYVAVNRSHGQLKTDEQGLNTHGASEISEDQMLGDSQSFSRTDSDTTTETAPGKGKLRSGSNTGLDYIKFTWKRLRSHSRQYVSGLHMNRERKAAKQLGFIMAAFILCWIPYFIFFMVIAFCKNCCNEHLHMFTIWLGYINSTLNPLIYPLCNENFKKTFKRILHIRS
T3 sequence (P14416 whole entry): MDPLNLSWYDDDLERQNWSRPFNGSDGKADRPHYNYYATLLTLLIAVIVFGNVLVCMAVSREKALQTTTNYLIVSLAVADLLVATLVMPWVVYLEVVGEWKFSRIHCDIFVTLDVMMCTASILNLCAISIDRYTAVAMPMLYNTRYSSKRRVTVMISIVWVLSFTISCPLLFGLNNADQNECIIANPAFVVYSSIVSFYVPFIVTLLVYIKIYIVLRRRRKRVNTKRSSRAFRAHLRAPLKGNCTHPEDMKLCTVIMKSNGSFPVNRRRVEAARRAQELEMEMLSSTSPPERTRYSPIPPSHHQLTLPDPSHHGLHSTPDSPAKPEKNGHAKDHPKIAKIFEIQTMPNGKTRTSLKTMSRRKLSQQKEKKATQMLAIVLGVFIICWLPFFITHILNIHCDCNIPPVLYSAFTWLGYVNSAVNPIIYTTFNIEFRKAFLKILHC
T4 sequence (P28223 whole entry): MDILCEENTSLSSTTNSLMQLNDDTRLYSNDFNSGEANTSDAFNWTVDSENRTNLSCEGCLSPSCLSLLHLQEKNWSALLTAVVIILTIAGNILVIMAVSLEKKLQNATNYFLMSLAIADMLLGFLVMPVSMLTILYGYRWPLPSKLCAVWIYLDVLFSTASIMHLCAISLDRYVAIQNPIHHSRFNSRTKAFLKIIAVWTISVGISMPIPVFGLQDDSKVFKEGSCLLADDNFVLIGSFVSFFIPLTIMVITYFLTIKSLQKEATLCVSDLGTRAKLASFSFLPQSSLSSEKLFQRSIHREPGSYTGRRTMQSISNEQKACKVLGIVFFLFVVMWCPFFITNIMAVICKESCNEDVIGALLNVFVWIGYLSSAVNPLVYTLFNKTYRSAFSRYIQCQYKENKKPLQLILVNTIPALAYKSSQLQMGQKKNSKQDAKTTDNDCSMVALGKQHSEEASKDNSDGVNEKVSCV
T2 sequence (P25021 whole entry): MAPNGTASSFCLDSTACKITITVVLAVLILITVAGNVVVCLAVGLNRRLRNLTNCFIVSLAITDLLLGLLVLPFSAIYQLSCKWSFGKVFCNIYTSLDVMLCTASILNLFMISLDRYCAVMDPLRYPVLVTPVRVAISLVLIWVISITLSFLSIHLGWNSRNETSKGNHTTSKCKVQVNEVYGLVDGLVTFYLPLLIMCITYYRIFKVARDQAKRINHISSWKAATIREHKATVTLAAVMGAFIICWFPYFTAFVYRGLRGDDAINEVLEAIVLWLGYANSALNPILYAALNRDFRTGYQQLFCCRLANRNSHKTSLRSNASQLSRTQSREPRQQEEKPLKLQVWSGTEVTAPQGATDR

In the case of `Cc1cc2c3c(c1)c1c(n3CC(c3ccc(C)nc3)C2)CCN(C)C1` (stereo not drawn) [Compound 1], the inhibition at 1 µM [1] is reported as 44%, the inhibition at 1 µM [2] is reported as 42% and the inhibition at 1 µM [3] is reported as -1%. For the same compound, the inhibition at 1 µM [4] was 20%, the inhibition at 1 µM [5] was 19% and the inhibition at 1 µM [6] was 24%.
Work on `Cc1cc2c3c(c1)c1c(n3CC2c2ccc(F)cc2)CCN(C)C1` (stereo not drawn) [Compound 2] yielded an inhibition at 1 µM [1] of 66%, an inhibition at 1 µM [2] of 48% and an inhibition at 1 µM [3] of 17%. It also gave an inhibition at 1 µM [4] of 87%, an inhibition at 1 µM [5] of 92% and an inhibition at 1 µM [6] of 57%. For the same compound, the inhibition at 1 µM [7] was 89%.
For `Cc1cc2c3c(c1)c1c(n3CCO2)CCN(C)C1` [Compound 4, 5,8-dimethyl-1,2,7,8,9,10-hexahydro-[1,4]oxazino[2,3,4-hi]pyrido[4,3-b]indole], the inhibition at 1 µM [1] was 53%, the inhibition at 1 µM [2] was 10% and the inhibition at 1 µM [3] was 6%. The inhibition at 1 µM [4] was 56%, the inhibition at 1 µM [5] was 79% and the inhibition at 1 µM [6] was 25%. It also gave an inhibition at 1 µM [7] of 46%.
In the case of `Cc1cc2c3c(c1)c1c(n3CC(c3ccc(F)cc3)=C2)CCN(C)C1` [Compound 158], the inhibition at 1 µM [1] is reported as 27%, the inhibition at 1 µM [3] is reported as 99% and the inhibition at 0.1 µM ([4]; compound at 0.1 μM, read-out: Serotonin (0.1 μM) 5-HT2A, percentage inhibition of ligand binding) is reported as 81%. The inhibition at 0.1 µM ([5]; compound at 0.1 μM, read-out: Serotonin (0.1 μM) 5-HT2C, percentage inhibition of ligand binding) was 55%, the inhibition at 0.1 µM ([6]; compound at 0.1 μM, read-out: Serotonin (0.1 μM) 5-HT6, percentage inhibition of ligand binding) was 82% and the inhibition at 0.1 µM ([7]; compound at 0.1 μM, read-out: Serotonin (0.1 μM) 5-HT7, percentage inhibition of ligand binding) was 36%. The “stability in acidic medium” value [8] was “unstable in acidic medium”.
